The results in this text go back to patent US4472404A, “8-Quinolinyl carbamates and their use as urinary tract antimicrobials” (priority 1982, dated 1984).

What all share (assay type): cell-based
In one assay the test system is Candida pelliculosa. The experiment in a line: Agar-plate minimum inhibitory concentration (Example 12). As to conditions: Hansenula anomala, read-out: Minimum Inhibitory Concentration. Here is the method: (§1) The test compound was added to molten agar as a solution (when conveniently soluble in a solvent such as dimethylformamide) or a suspension forming a mixture having a concentration of 0.05 percent (500 ppm). The mixture was stirred and poured into plates to harden. When hardened, the plates were inoculated with various bacteria and fungi. The bacteria-inoculated plates were incubated at 37° C. for 24 hours, while the fungi-inoculated plates were incubated for about 72-120 hours. Following incubation, the plates were examined for growth or inhibition of the respective organisms.
(§2) After the initial readings, compounds showing sufficient activity were re-tested at various concentrations to determine the minimum inhibitory concentration (in ppm) of the compounds of the invention against the various bacteria and fungi tested.

In the next assay the test system is Candida albicans. The assay is described as above. As to conditions: read-out: Minimum Inhibitory Concentration. Here is the method: as §1, §2
Another assay has as its system Aspergillus niger. The description is as above. The note with it: read-out: Minimum Inhibitory Concentration. Here is the method: as §1, §2
For another assay, the system named is Bacillus subtilis. Described as above. The note with it: read-out: Minimum Inhibitory Concentration. Here is the method:
as §1, §2

A further assay has as its system Salmonella typhosa. Described as above. As to conditions: Salmonella enterica, read-out: Minimum Inhibitory Concentration. Here is the method:
as §1, §2

A further assay deals with Streptococcus mutans. The assay is described as above. As to conditions: read-out: Minimum Inhibitory Concentration. Here is the method:
as §1, §2

The next assay concerns Ceratocystis ips. The assay is described as above. The note with it: read-out: Minimum Inhibitory Concentration. Here is the method:
as §1, §2

Assay [1] relates to Trichophyton mentagrophytes. The assay is described as above. As to conditions: read-out: Minimum Inhibitory Concentration. Here is the method: as §1, §2
Assay [2] concerns Staphylococcus aureus ATCC 25923. The experiment in a line: Minimum inhibitory concentration, urinary tract organisms (Example 13). Here is the method:
as §1, §2
(§3) Following a procedure substantially the same as that described in Example 12, the minimum inhibitory concentration for the compounds described herein was determined for various organisms representative of those commonly associated with urinary tract infections.
(§4) The organisms used in this procedure and the abbreviations designated in Table 3 are as follows: […]

Assay [3] has as its system Klebsiella pneumoniae M-1. Described as above. Here is the method: as §1, §2, §3, §4
The subject of assay [4] is Enterobacter aerogenes ATCC 13048. Described as above. The note with it: Klebsiella aerogenes. Here is the method: as §1, §2, §3, §4
For assay [5], the system named is Klebsiella pneumoniae ATCC 23357. Described as above. Here is the method: as §1, §2, §3, §4
Assay [6] has as its system Pseudomonas aeruginosa PRD-10. The description is as above. Here is the method:
as §1, §2, §3, §4

The test system of assay [7] is Pseudomonas aeruginosa ATCC 27853. The assay is described as above. Here is the method: as §1, §2, §3, §4
In assay [8] the test system is Escherichia coli ATCC 11229. The description is as above. Here is the method: as §1, §2, §3, §4
The test system of assay [9] is Escherichia coli ATCC 9723. The assay is described as above. Here is the method: as §1, §2, §3, §4
The test system of assay [10] is Pseudomonas aeruginosa ATCC 7700. The assay is described as above. Here is the method:
as §1, §2, §3, §4

A further assay deals with Proteus mirabilis 470/1. The assay is described as above. Here is the method:
as §1, §2, §3, §4

For assay [11], the system named is Escherichia coli ATCC 4157. The description is as above. Here is the method: as §1, §2, §3, §4
The test system of assay [12] is Klebsiella pneumoniae M-2. The assay is described as above. Here is the method:
as §1, §2, §3, §4

In assay [13] the test system is Pseudomonas aeruginosa ATCC 10145. The assay is described as above. Here is the method:
as §1, §2, §3, §4

For assay [14], the system named is Klebsiella pneumoniae M-6. The assay is described as above. Here is the method:
as §1, §2, §3, §4

Assay [15] concerns Escherichia coli ATCC 25922. Described as above. Here is the method:
as §1, §2, §3, §4

The subject of the next assay is Serratia marcescens M-1. Described as above. Here is the method: as §1, §2, §3, §4
Where [16] appears, read: Candida pelliculosa, agar, 72-120 hours.
Setting [17] is: Salmonella typhosa, agar, 37° C., 24 hours.
[18] abbreviates: Ceratocystis ips, agar, 72-120 hours.
[19] abbreviates: ATCC25923, Sa 25923, read-out: Minimum Inhibitory Concentration.
Setting [20] is: M1, Kp M-1, read-out: Minimum Inhibitory Concentration.
Where [21] appears, read: ATCC13048, Ea 13048, read-out: Minimum Inhibitory Concentration.
[22] abbreviates: ATCC23357, Kp 23357, read-out: Minimum Inhibitory Concentration.
Setting [23] is: PRD10, Pa PRD-10, read-out: Minimum Inhibitory Concentration.
The mark [24] stands for this setting: ATCC27853, Pa 27853, read-out: Minimum Inhibitory Concentration.
[25] abbreviates: ATCC11229, Ec 11229, read-out: Minimum Inhibitory Concentration.
Where [26] appears, read: ATCC9723, Ec 9723, read-out: Minimum Inhibitory Concentration.
[27] abbreviates: ATCC7700, Pa 7700, read-out: Minimum Inhibitory Concentration.
Where [28] appears, read: Pm 470/1, read-out: Minimum Inhibitory Concentration.
The mark [29] stands for this setting: ATCC4157, Ec 4157, read-out: Minimum Inhibitory Concentration.
Setting [30] is: M2, Kp M-2, read-out: Minimum Inhibitory Concentration.
The mark [31] stands for this setting: ATCC10145, Pa 10145, read-out: Minimum Inhibitory Concentration.
Where [32] appears, read: M6, Kp M-6, read-out: Minimum Inhibitory Concentration.
Setting [33] is: ATCC25922, Ec 25922, read-out: Minimum Inhibitory Concentration.
Where [34] appears, read: M1, Sr M-1, read-out: Minimum Inhibitory Concentration.
The mark [35] stands for this setting: M1, read-out: Minimum Inhibitory Concentration.

Converted amounts (≈) assume the structure as drawn. Read-outs that look alike come from different tables or passages of the source.

With `CCOC(=O)CNC(=O)Oc1ccc(Cl)c2cccnc12.Cl` [Example 8, Ethyl N-(((5-chloro-8-quinolinyl)oxy)carbonyl)glycinate hydrochloride salt], the MIC was 10 µg/mL in the assay on Candida pelliculosa (setting [16]); 10 µg/mL with Candida albicans (agar, 72-120 hours); 10 µg/mL with Aspergillus niger (agar, 72-120 hours); 1 µg/mL in the assay with Bacillus subtilis (agar, 37° C., 24 hours); 50 µg/mL in the assay on Salmonella typhosa (setting [17]); more than 500 µg/mL in the assay with Streptococcus mutans (agar, 37° C., 24 hours). In addition, the MIC with Ceratocystis ips (setting [18]) is 50 µg/mL; in assay [1] (agar, 72-120 hours), 10 µg/mL; in assay [2] (setting [19]), 10 µg/mL; in [3] (setting [20]), 50 µg/mL; in assay [4] (setting [21]) it was 50 µg/mL; in [5] (setting [22]) it was 50 µg/mL. Moreover, the MIC in assay [6] (setting [23]) came out at 100 µg/mL; in assay [7] (setting [24]), 100 µg/mL; in assay [8] (setting [25]), 25 µg/mL; in assay [9] (setting [26]), 25 µg/mL; in assay [10] (setting [27]), 100 µg/mL; with Proteus mirabilis 470/1 (setting [28]), 50 µg/mL. Also, the MIC was found to be 25 µg/mL in assay [11] (setting [29]); 50 µg/mL in [12] (setting [30]); 75 µg/mL in [13] (setting [31]); 25 µg/mL in assay [14] (setting [32]); 25 µg/mL in [15] (setting [33]); 75 µg/mL in the assay with Serratia marcescens M-1 (setting [34]).

`CCOC(=O)CNC(=O)Oc1cccc2cccnc12` [Example 9, Ethyl N-(((8-quinolinyl)oxy)carbonyl)glycinate]: the MIC in the assay on Candida pelliculosa (setting [16]) worked out at 50 µg/mL (≈ 182 µM); in the assay with Candida albicans (agar, 72-120 hours), 100 µg/mL (≈ 365 µM); with Aspergillus niger (agar, 72-120 hours), 100 µg/mL (≈ 365 µM); with Bacillus subtilis (agar, 37° C., 24 hours) it was 10 µg/mL (≈ 36.5 µM); in the assay with Salmonella typhosa (setting [17]), 50 µg/mL (≈ 182 µM); in the assay with Streptococcus mutans (agar, 37° C., 24 hours) it was 5 µg/mL (≈ 18.2 µM). The MIC in the assay with Ceratocystis ips (setting [18]) worked out at 100 µg/mL (≈ 365 µM); in [1] (agar, 72-120 hours), 50 µg/mL (≈ 182 µM); in assay [2] (setting [19]), 10 µg/mL (≈ 36.5 µM); in [3] (setting [20]), 100 µg/mL (≈ 365 µM); in assay [4] (setting [21]), 100 µg/mL (≈ 365 µM); in [5] (setting [22]), 50 µg/mL (≈ 182 µM). The MIC in assay [6] (setting [23]) is 500 µg/mL (≈ 1820 µM); in assay [7] (setting [24]) it was 250 µg/mL (≈ 911 µM); in assay [8] (setting [25]), 75 µg/mL (≈ 273 µM); in [9] (setting [26]), 75 µg/mL (≈ 273 µM); in assay [10] (setting [27]) it was 500 µg/mL (≈ 1820 µM); in the assay with Proteus mirabilis 470/1 (setting [28]), 75 µg/mL (≈ 273 µM). In addition, the MIC in [11] (setting [29]) was 75 µg/mL (≈ 273 µM); in [12] (setting [30]) it was 100 µg/mL (≈ 365 µM); in assay [13] (setting [31]) it was 50 µg/mL (≈ 182 µM); in [14] (setting [32]), 75 µg/mL (≈ 273 µM); in [15] (setting [33]), 75 µg/mL (≈ 273 µM); with Serratia marcescens M-1 (setting [34]), 100 µg/mL (≈ 365 µM).

For the molecule `CNC(=O)Oc1c(Cl)cc(Cl)c2cccnc12` [Example 10, 5,7-Dichloro-8quinolinyl N-methylcarbamate], the MIC in the assay with Candida pelliculosa amounted to 5 µg/mL (≈ 18.4 µM); in the assay on Candida albicans, 5 µg/mL (≈ 18.4 µM); in the assay on Aspergillus niger, 10 µg/mL (≈ 36.9 µM); in the assay with Bacillus subtilis (24 h), 0.5 µg/mL (≈ 1.84 µM); with Salmonella typhosa (TYPHOSA, 24 h), 10 µg/mL (≈ 36.9 µM); with Streptococcus mutans (24 h), 10 µg/mL (≈ 36.9 µM). Also, the MIC with Ceratocystis ips is 50 µg/mL (≈ 184 µM); in assay [1], 50 µg/mL (≈ 184 µM); in assay [2] (ATCC25923, read-out: Minimum Inhibitory Concentration), less than 5 µg/mL; in assay [3] (setting [35]), 25 µg/mL (≈ 92.2 µM); in [4] (ATCC13048, read-out: Minimum Inhibitory Concentration), 25 µg/mL (≈ 92.2 µM); in assay [5] (ATCC23357, read-out: Minimum Inhibitory Concentration) it was 10 µg/mL (≈ 36.9 µM). Further, the MIC in [6] (PRD10, read-out: Minimum Inhibitory Concentration) amounted to 25 µg/mL (≈ 92.2 µM); in assay [7] (ATCC27853, read-out: Minimum Inhibitory Concentration), 50 µg/mL (≈ 184 µM); in assay [8] (ATCC11229, read-out: Minimum Inhibitory Concentration), 10 µg/mL (≈ 36.9 µM); in assay [9] (ATCC9723, read-out: Minimum Inhibitory Concentration) it was 10 µg/mL (≈ 36.9 µM); in [10] (ATCC7700, read-out: Minimum Inhibitory Concentration) it was 50 µg/mL (≈ 184 µM); with Proteus mirabilis 470/1 (470/1, read-out: Minimum Inhibitory Concentration), 10 µg/mL (≈ 36.9 µM). Further, the MIC in [11] (ATCC4157, read-out: Minimum Inhibitory Concentration) was 10 µg/mL (≈ 36.9 µM); in assay [12] (M2, read-out: Minimum Inhibitory Concentration) it was 25 µg/mL (≈ 92.2 µM); in assay [13] (ATCC10145, read-out: Minimum Inhibitory Concentration) it was 10 µg/mL (≈ 36.9 µM); in assay [14] (M6, read-out: Minimum Inhibitory Concentration), 25 µg/mL (≈ 92.2 µM); in [15] (ATCC25922, read-out: Minimum Inhibitory Concentration) it was 10 µg/mL (≈ 36.9 µM); with Serratia marcescens M-1 (setting [35]), 25 µg/mL (≈ 92.2 µM).
